Consider two molecules from PMC7321072, “Bioactive Potential of Extracts of Labrenzia aggregata Strain USBA 371, a Halophilic Bacterium Isolated from a Terrestrial Source” (Molecules, 2020).

Structures are written as SMILES. Like-named read-outs stand apart in the source and are kept apart here.

Common to all, as to format: cell-based
The test system of data set [1] is MES–SA/DX5P-Pgp (+) (human uterus sarcome). Description: Cytotoxic activity, neutral red assay, MES-SA/DX5 Pgp (+). As to the method: (§1) The isolated compounds were resuspended in dimethyl sulfoxide (DMSO) to a final concentration of 25 mg/mL (stock solution), subsequent dilutions between 250 and 31 μg/mL were used for cytotoxicity assays. The cytotoxic activity was determined by neutral red assay, initially against the adherent cell lines 4T1 (mouse mammary tumor) and MCF-7 (human mammary adenocarcinoma) followed by H17 y TSA (murine breast cancer), MES SA PGP (+) y MES SA PGP (–) (human uterus sarcome), B16 (murine melanoma), MCA 38 (murine colon), 3T3 (murine fibroblats) y K562-ATCC, U937 y HL-60/MX2 (myeloid acute leukemia cell line) as described by Díaz-Cárdenas et al., 2017 [15]. When cultures reached a confluence of 80%, cells were passaged and counted in a Neubauer chamber. Cell viability was estimated in triplicate using the trypan blue assay. The percentage of viability was calculated as absorbance of the vehicle/absorbance of the treatment per 100. […] IC50 values were calculated with three or four parameter nonlinear regression curves using GraphPad Prism software (GraphPad Software, Inc., San Diego, CA, USA). […] The selectivity index was calculated using the formula: IC50 Fibroblasts/IC50 tumor cell. […]
(§2) The solvent used in the reconstitution of the extract (DMSO) was evaluated as a negative control for each test in the same volume as the extracts. […]

Data set [2] relates to MCF-7 (human mammary adenocarcinoma). Description: Cytotoxic activity, neutral red assay, MCF-7. Conditions: mean ± SEM. How it is done:
(§3) The isolated compounds were resuspended in dimethyl sulfoxide (DMSO) to a final concentration of 25 mg/mL (stock solution), subsequent dilutions between 250 and 31 μg/mL were used for cytotoxicity assays. The cytotoxic activity was determined by neutral red assay, initially against the adherent cell lines 4T1 (mouse mammary tumor) and MCF-7 (human mammary adenocarcinoma) followed by H17 y TSA (murine breast cancer), MES SA PGP (+) y MES SA PGP (–) (human uterus sarcome), B16 (murine melanoma), MCA 38 (murine colon), 3T3 (murine fibroblats) y K562-ATCC, U937 y HL-60/MX2 (myeloid acute leukemia cell line) as described by Díaz-Cárdenas et al., 2017 [15]. When cultures reached a confluence of 80%, cells were passaged and counted in a Neubauer chamber. Cell viability was estimated in triplicate using the trypan blue assay. The percentage of viability was calculated as absorbance of the vehicle/absorbance of the treatment per 100. Inhibitory concentration 50 (IC50) values were defined as the concentration of the extracts that generated 50% inhibition of tumor cell growth. IC50 values were calculated with three or four parameter nonlinear regression curves using GraphPad Prism software (GraphPad Software, Inc., San Diego, CA, USA). IC50 values are presented as the mean ± standard error of mean (SEM). The selectivity index was calculated using the formula: IC50 Fibroblasts/IC50 tumor cell. A potential against tumor cell lines was considered when the selectivity was greater than 1.
(§4) The solvent used in the reconstitution of the extract (DMSO) was evaluated as a negative control for each test in the same volume as the extracts. Doxorubicin at a maximum concentration of 5 μM was used as a positive control.

Data set [3] deals with 4T1 H17 (murine breast cancer, high ALDH expression). Description: Cytotoxic activity, neutral red assay, 4T1 H17. Conditions: mean ± SEM. How it is done:
as §1, §2

For another data set, the system named is 3T3 (murine fibroblast). Description: Cytotoxic activity, neutral red assay, 3T3 normal fibroblasts. Conditions: 3T3, murine fibroblast (normal cells); mean ± SEM; read-out: Cytotoxic Activity of Fractions IC50. How it is done:
as §1, §2

Data set [4] has as its system TSA (murine breast cancer). Description: Cytotoxic activity, neutral red assay, TSA. Conditions: mean ± SEM, read-out: Cytotoxic Activity of Fractions IC50. How it is done: as §1, §2
Data set [5] has as its system U937 (myeloid acute leukemia). Description: Cytotoxic activity, neutral red assay, U937. How it is done:
as §1, §2

A further data set has as its system 3LL (lung cancer). Description: Cytotoxic activity, neutral red assay, 3LL. Conditions: mean ± SEM.
For data set [6], the system named is 4T1 (mouse mammary tumor). Description: Cytotoxic activity, neutral red assay, 4T1. Conditions: mean ± SEM. As to the method:
as §3, §4

The subject of data set [7] is K562 (myeloid acute leukemia). Description: Cytotoxic activity, neutral red assay, K562. As to the method: as §1, §2
In the next data set the test system is MCA 38 (murine colon). Description: Cytotoxic activity, neutral red assay, MCA 38. Conditions: mean ± SEM. How it is done:
as §1, §2

Another data set concerns B16 (murine melanoma). Description: Cytotoxic activity, neutral red assay, B16. Conditions: mean ± SEM, read-out: Cytotoxic Activity of Fractions IC50. As to the method:
as §1, §2

Where [8] appears, read: listed as compound 1, read-out: Cytotoxic Activity of Fractions IC50.
[9] abbreviates: read-out: Cytotoxic Activity of Fractions IC50.

For the molecule `O=C1N[C@@H](Cc2ccc(O)cc2)C(=O)N2CCC[C@@H]12` [Compound 1, cyclo (L-Pro-L-Tyr)], the “Selectivity Index (SI)” value in data set [1] (IC50 fibroblasts (3T3)/IC50 MES-SA/DX5 Pgp (+)) is on record as 1.39. Further, the IC50 (as a rule, the concentration that inhibits the measured activity by half) is 225.3 ± 1.23 µM in data set [1] (MES-SA/DX5 Pgp (+), human uterus sarcoma, mean ± SEM, read-out: Cytotoxic Activity of Fractions IC50); 87.7 ± 2.32 µM in [2]; < 88 µM in data set [2] (listed as compound 1); < 40 µM in data set [3] (setting [8]); 40.4 ± 1.94 µM in data set [3] (setting [9]); 314 ± 3.41 µM in the data set with 3T3 (murine fibroblast). Also, the IC50 is 197 ± 4.18 µM in data set [4]; < 51.7 µM with 3LL (lung cancer) (setting [8]); 51.7 ± 0.55 µM with 3LL (lung cancer) (setting [9]); 57.1 ± 2.11 µM in [6]; < 88 µM in data set [6] (listed as compound 1); < 40 µM in the data set on MCA 38 (murine colon) (setting [8]). In addition, the IC50 with MCA 38 (murine colon) (setting [9]) amounted to 29.9 ± 1.55 µM; in the data set with B16 (murine melanoma) it was 80.9 ± 3.67 µM. In addition, the “cytotoxic activity (in words)” value in data set [5] and in data set [7] was “no activity was detected” each time.

Turning to `O=C1N[C@@H](Cc2ccc(O)cc2)C(=O)N[C@H]1Cc1ccccc1` [Compound 2, cyclo (L-Tyr-L-Phe)], the IC50 in data set [2] is 890.5 ± 3.45 µM; in [2] (listed as compound 2) it was > 250 µM; in data set [6], 875.9 ± 5.14 µM; in [6] (listed as compound 2), > 250 µM.
